In PMC11292009, “Mapping protein binding sites by photoreactive fragment pharmacophores” (Communications Chemistry, 2024):

Legend:
Type in all cases: binding
[1] = test system: T1, KRas^G12D; test: Intact MS photoaffinity labeling screen, KRas G12D (302 nm, LCMS-TOF); conditions: for experimental hit status KRAS-G12D: 0/1 flag; for MS labeling percentage, KRas: KRas G12D, 302 nm 10 min; for KRAS-G12D: experimental hit status flag (0/1)
T1 construct: purchased GSK/GenScript
Protocol: (§1) Using a plate-based format with one fragment per well, each fragment was incubated with the target proteins for 15 min to allow for the formation of non-covalent interactions. […] Finally, the results were directly analyzed from the plate using intact protein mass spectrometry by observing the mass additions that correspond to successful labeling (Fig. 2c, for labeling % values see Supplementary data). The library was first characterized against three benchmark proteins like carbonic anhydrase (CA), lysozyme (Lyo), and myoglobin (Myo).
(§2) The PhP library was screened against BRD4-BD1 and KRas^G12D as follows. […] The probe plate was placed on ice. 15 μL of protein stock solution (1 μM BRD4-BD1 (GSK/GenScript) or KRas^G12D (GSK/GenScript) in PBS buffer) was dispensed into wells containing fragments. The plate was left on ice for 15 min for incubation, then irradiated at 302 nm for 10 min, and centrifuged (1000 rpm, 1 min) to remove any bubbles. […] The deconvoluted spectra were analyzed using R Studio software.

[2] = test system: T2, STAT5B-NTD; test: Intact MS photoaffinity labeling screen, STAT5B-NTD (365 nm, UHPLC-MS); conditions: for experimental hit status STAT5B-NTD: 0/1 flag; for MS labeling percentage, STAT5B: STAT5B-NTD, 365 nm 10 min, no photocatalyst; for STAT5B-NTD: experimental hit status flag (0/1);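 as to MS labeling percentage, STAT5B: 0.17 µL of 100 mM DMSO fragment stock added to the protein sample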
T2 construct: His-SUMO (N, cleaved yes); made in house; host or cells: E. coli BL21 RILP
Protocol: STAT5B protein in 7 µM concentration in pH 7.4 PBS buffer was pre-incubated with 0.17 µL PhP (in 100 mM DMSO solution) for 1 h at room temperature in dark. Irradiation was carried out at 4 °C for 10 min using 365 nm UV lamp.
(§3) During the analysis, the column temperature was maintained at a constant 60 °C, and a sample volume of 3 µL was injected for each analysis. Data acquisition was conducted in positive ion mode within the m/z 100–2000 (mass-to-charge ratio) range. For the full protocol and spectra of the hits, see Supplementary Note 2.

[3] = test system: lysozyme (Lyo); test: Intact protein MS photoaffinity labeling screen, lysozyme; conditions: intact protein MS after 10 min irradiation
Protocol: as §1

[4] = test system: myoglobin (Myo); test: Intact protein MS photoaffinity labeling screen, myoglobin; conditions: intact protein MS after 10 min irradiation
Protocol: as §1

[5] = test system: T2, STAT5B-NTD; test: Intact MS labeling screen, STAT5B-NTD conjugated with photocatalyst Ir-G2-PEG3-COOH (450 nm); conditions: 450 nm 10 min;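 also: 0.14 µL of 100 mM DMSO fragment stock added to the conjugate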
Protocol: For the photocatalysis experiments, 1.4 µL photocatalyst (in 1.4 mM DMSO solution, 10 eq) was pre-incubated with 1.5 µL coupling reagent (0.75 µL, 5.6 mM EDC (20 eq)+0.75 µL 4.2 mM NHS and 1.5 µL 2.1 mM (15 eq) BOP for 30 min in dark. 30 µL STAT5B-NTD (in 7 µM concentration) was added and incubated further at room temperature overnight or at 37 °C for 1 h in dark. After addition of 0.14 µL PhP (in 100 mM DMSO) the solution was further incubated in dark for 1 h. Irradiation was carried out using 450 nm LED lamp (7.6Vx0A) for 10 min at 4 °C.
as §3

[6] = test system: carbonic anhydrase II (CA); test: Intact protein MS photoaffinity labeling screen, carbonic anhydrase; conditions: intact protein MS after 10 min irradiation
Protocol: as §1

[7] = test system: T3, BRD4-BD1; test: Intact MS photoaffinity labeling screen, BRD4-BD1 (302 nm, LCMS-TOF); conditions: for experimental hit status BRD4-BD1: 0/1 flag; for MS labeling percentage, BRD4: BRD4-BD1, 302 nm 10 min; for BRD4-BD1: experimental hit status flag (0/1)
T3 construct: screened the PhP library against the first bromodomain of BRD4 (BRD4-BD1); purchased GSK/GenScript
Protocol: as §1, §2

[8] = hit status flag, 1 = hit, 0 = no hit
[9] = PhP library sheet "PhP", binary flag printed as 0 or 1, key not given
[10] = hit flag 1/0, sheet PhP, photoaffinity labeling screen

Row | SMILES | MS labeling percentage, KRas [1] [%] | MS labeling percentage, STAT5B [2] [%] | MS labeling percentage, Lyo [3] [%] | MS labeling percentage, Myo [4] [%] | MS labeling percentage, STAT5B+photocat [5] [%] | MS labeling percentage, CA [6] [%] | MS labeling percentage, BRD4 [7] [%] | also measured
1 | Cc1ccc(C(NC(=O)CCC2(C)N=N2)c2ccccn2)cc1 (stereo not drawn) [PhP026, n1ccccc1C(c(cc2)ccc2C)NC(=O)CCC3(C)N=N3] | 0.3 | 1 | 0.4 | 0.2 | 5 | 0.4 | 0.4 | experimental hit status KRAS-G12D [1]: 0; experimental hit status STAT5B-NTD [2]: 0; experimental hit status BRD4-BD1 [7]: 0
2 | CN(C)CC(=O)Nc1cccc(NC(=O)CCC2(C)N=N2)c1 [PhP100, CN(C)CC(=O)Nc1cccc(c1)NC(=O)CCC2(C)N=N2] | 0 | 1 | 0 | 0.1 | 0 | 0.1 | 0.6 | KRAS-G12D (experimental hit status) [1, 8]: 0; STAT5B-NTD (experimental hit status) [2, 8]: 0; BRD4-BD1 (experimental hit status) [7, 8]: 0
3 | CC1(CCC(=O)NCCNC(=O)Nc2ccccc2)N=N1 [PhP094, N1=NC1(C)CCC(=O)NCCNC(=O)Nc2ccccc2] | 0.5 | 1 | 0.9 | 0.1 | 2.1 | 0.4 | 1.1 | KRAS-G12D (experimental hit status) [1, 9]: 0; STAT5B-NTD (experimental hit status) [2, 9]: 0; BRD4-BD1 (experimental hit status) [7, 9]: 0
4 | CC1(CCC(=O)NCc2c(O)ccc3ccccc23)N=N1 [PhP057, N1=NC1(C)CCC(=O)NCc(c(O)cc2)c(c23)cccc3] | 1.1 | 0 | 2.2 | 0.7 | 3.4 | 0.4 | 1.6 | KRAS-G12D (experimental hit status) [1, 10]: 0; STAT5B-NTD (experimental hit status) [2, 10]: 0; BRD4-BD1 (experimental hit status) [7, 10]: 0
5 | CC1(CCC(=O)NCCc2nc3ccccc3[nH]2)N=N1 [PhP031, N1=NC1(C)CCC(=O)NCCc(n2)[nH]c(c23)cccc3] | 0.4 | 1 | 0 | 0.3 | 0.5 | 0.6 | 0.8 | experimental hit status KRAS-G12D [1]: 0; experimental hit status STAT5B-NTD [2]: 0; experimental hit status BRD4-BD1 [7]: 0
6 | CC1(CCC(=O)NCCCn2ccnc2)N=N1 [PhP050, N1=NC1(C)CCC(=O)NCCCn2ccnc2] | 0.6 | 1 | 0 | 0.2 | 0.4 | 0.3 | 0.4 | KRAS-G12D (experimental hit status) [1, 10]: 0; STAT5B-NTD (experimental hit status) [2, 10]: 0; BRD4-BD1 (experimental hit status) [7, 10]: 0
7 | CC1(CCC(=O)NC2CCc3nc(C(C)(C)C)cn3C2)N=N1 (stereo not drawn) [PhP016, CC(C)(C)c(c1)nc(n12)CCC(C2)NC(=O)CCC3(C)N=N3] | 0.2 | 0 | 0 | 0.2 | 8.9 | 0.6 | 0.3 | KRAS-G12D [1]: 0; STAT5B-NTD [2]: 0; BRD4-BD1 [7]: 0
8 | CC1(CCC(=O)NCc2nnc3n2CCC3)N=N1 [PhP083, N1=NC1(C)CCC(=O)NCc(nn2)n(c23)CCC3] | 0.2 | 1 | 0 | 0.1 | 0.7 | 0.4 | 0.3 | KRAS-G12D (experimental hit status) [1, 9]: 0; STAT5B-NTD (experimental hit status) [2, 9]: 0; BRD4-BD1 (experimental hit status) [7, 9]: 0
9 | CC1(CCC(=O)NC2CCCC(NC(=O)OC(C)(C)C)C2)N=N1 (stereo not drawn) [PhP015, CC(C)(C)OC(=O)NC1CCCC(C1)NC(=O)CCC2(C)N=N2] | 0.6 | 1 | 1.1 | 0.2 | 1.6 | 0.3 | 0.3 | KRAS-G12D [1]: 0; STAT5B-NTD [2]: 0; BRD4-BD1 [7]: 0
10 | CC1(CCC(=O)Nc2cccc(-n3cnnn3)c2)N=N1 [PhP042, N1=NC1(C)CCC(=O)Nc2cccc(c2)-n3cnnn3] | 0.5 | 2 | 0 | 0.2 | 17.8 | 0.9 | 1 | KRAS-G12D (experimental hit status) [1, 10]: 0; STAT5B-NTD (experimental hit status) [2, 10]: 0; BRD4-BD1 (experimental hit status) [7, 10]: 0
11 | Cc1nnc(CNC(=O)CCC2(C)N=N2)[nH]1 [PhP093, Cc1nnc([nH]1)CNC(=O)CCC2(C)N=N2] | 0.3 | 2 | 0 | 0.2 | 0.5 | 0.5 | 0.5 | KRAS-G12D (experimental hit status) [1, 9]: 0; STAT5B-NTD (experimental hit status) [2, 9]: 0; BRD4-BD1 (experimental hit status) [7, 9]: 0
12 | CCOC(=O)c1c(NC(=O)CCC2(C)N=N2)sc2c1CCN(Cc1ccccc1)C2 [PhP002, N1=NC1(C)CCC(=O)Nc(s2)c(C(=O)OCC)c(c23)CCN(C3)Cc4ccccc4] | 0.2 | 0 | 0 | 0.1 | 0 | 0.2 | 0.1 | KRAS-G12D [1]: 0; STAT5B-NTD [2]: 0; BRD4-BD1 [7]: 0
